# “And” between values parts separate entries of the source, which are not always exact repeats. Equal values may be shown once.
# Key:
# [1] = tested on: 3T3-L1 cells; assay: CCK-8 assay (cytotoxicity); type: cell-based; conditions: 4 μM, 24 hours, Cell Counting Kit-8
# Experimental: Before testing the utility of thio-caged fluorophores for investigating biological systems, the cytotoxicity of SNile Red in adipocytes was evaluated using Cell Counting Kit-8. At a concentration of 4 μM SNile Red, 90% of 3T3-L1 cells remained viable even after 24 hours (FIG. 10). Thio-caged dyes were then used to obtain subcellular structural data via fluorescence imaging of adipocytes. Nile Red and BODIPY are the fluorescent dyes most commonly used for lipid imaging (Corsaro and Pistara, 1998, Spiller et al., 1998, Tang et al., 2013). Confocal laser scanning microscopy (CLSM) was used to determine the specificity of SNile Red localization in adipocytes differentiated from 3T3-L1 cells. For colocalization studies, adipocytes were stained with 2 μM SNile Red and 100 nM BODIPY 493/503 for 10 mins.
# 3T3-L1 cells were seeded in flat-bottomed 96-well plates, 1×10^4 cells per well, with 200 μL complete culture media for 24 h. […] After 2 hours, the absorbance at 450 nm was read by 96-well plates reader. The viability of […] cells was calculated by the following equation: CV=(As−Ab)/(Ac−Ab)×100%
# CV stands for the viability of cells, As, Ac and Ab stand for the absorbance of cells containing SNile Red cell control (0 μM SNile Red) and blank control (wells containing neither cells nor SNile Red).
# [2] = Photoactivation (turn-on) of thio-caged fluorophores in solution by light irradiation; type: physicochemical
# Excerpt: To determine whether a minimal one atom sulfur-for-oxygen substitution within fluorophores can lead to fluorescence quenching, thio-caged Nile Red (SNile Red, FIG. 1) was synthesized, in which a carbonyl group was replaced with a thiocarbonyl moiety. Treatment of Nile Red with Lawesson's reagent in refluxing benzene produced the desired SNile Red in a yield of 40%. […] Irradiation of SNile Red with red light (615 nm, 0.4 μW cm-2) led to the regeneration of fluorescent Nile Red in a high yield (FIG. 2A). The absorption maxima of SNile Red at 298, 368 and 652 nm were blue-shifted after desulfuration to 315 and 556 nm, in a good agreement with the absorption spectrum of authentic synthesized Nile Red (FIG. 2B). The A556/A652 value, representing the ratio of the absorbance maxima of Nile Red and SNile Red, increased from 0.25 to 30 after desulfuration reaction (FIG. 2B). Upon irradiation with red light, the fluorescence intensity of the desulfurated material at 626 nm increased 280-fold, accompanied by a change in fluorescence from dark to red (FIG. 2C). To evaluate the proper light source for SNile Red photoactivation, SNile Red was irradiated with either 470 nm, 615 nm, or 850 nm light for different times and fluorescence intensities at 626 nm were recorded. […] To further characterize the photoactivated product of SNile Red, ^1H NMR and ESI-MS spectral changes were measured in the process of photoactivation (FIG. 2A). […] Signals corresponding to phenyl moiety protons at 8.64, 8.62, 7.85, 7.73, 7.36, 7.04, and 6.79 ppm gradually disappeared, and were replaced by new signals appearing at 8.57, 8.13, 7.81, 7.72, 7.63, 6.85, 6.69 and 6.30 ppm, respectively. […] The photoactivated product was also characterized by ESI-mass spectrometric analysis FIG. 3). The observed m/z 319.2 corresponding to Nile Red confirms the photoactivation product of SNile Red is its oxo form. Both dialkylthioketones and diarylthioketones are known to undergo photo-oxidation reaction under oxygen and light to give the corresponding ketones (Coyle, 1985, Corsaro and Pistara, 1998). To investigate the effects of dissolved oxygen and light on the photoactivation of thio-caged fluorophores, the time profile of the fluorescence of SNile Red was measured in the presence or absence of light, or oxygen. […] To study the effect of oxygen during the photoactivation, the inventors prepared an oxygen-free SNile Red solution by bubbling nitrogen gas and irradiated at 615 nm. […] Inspired by the photoactivation mechanism of thioketones, it was hypothesized that singlet oxygen generated by self-sensitization can be the active species to oxidize thiocarbonyl groups within fluorophores (Coyle, 1985 and Corsaro and Pistara, 1998). […] The singlet oxygen quantum yield (DA) was further determined to be 0.36 with considering the absorption correction factor over the 600-630 nm region (Bonacin et al., 2009 and Adarsh et al., 2010) by referring to methylene blue (MB) (ΦΔ,MB=0.57 in dichloromethane; Li et al., 2013).
# Encouraged by the excellent photoactivation properties of SNile Red, Lawesson's reagent was employed to introduce thiocarbonyl moieties into several different fluorophores, such as phthalimide (PI), coumarin (Cou) and acridone (ACD), obtaining yields ranging from 20-80% (FIG. 1). Next, characterization of the spectroscopic and photochemical properties of these thiocaged fluorophores and their oxidized products using UV-vis and fluorescence spectroscopies was performed (Table 1). […] Double thiocarbonyl substitution on 4-dimethylaminophthalimide (4-DMAP, FIG. 1) produced an even larger bathochromic shift of 166 nm. […] It was hypothesized that the red-shift and enhanced absorption seen with thiocarbonyl compounds were due to the reduced energy gap between the HOMO-LUMO in these fluorophores. This is consistent with the computational results discussed below. […]
smiles,measurement,setting,value
CCN(CC)c1ccc2nc3c4ccccc4c(=S)cc-3oc2c1 [SNile Red],cells remaining viable,[1],90%
same,fluorescence change at 626 nm with light of shorter wavelengths than 652 nm,[2]; 470 nm or 615 nm light,significant fluorescence enhancement
same,increase of fluorescence intensity at 626 nm,[2]; 615 nm light in air for 20 mins,90 fold
same,activation by light out of the absorbance range,"[2]; 850 nm, after 5 hrs",negligible activation
same,Turn-on (x-fold),"[2]; DMSO, footnote e: 470 nm, 0.4 μW cm^−2",280^e x-fold
same,A556/A652 value,[2]; after desulfuration reaction,30
same,absorption maxima after desulfuration,"[2]; after irradiation with red light (615 nm, 0.4 μW cm-2)",315 nm and 556 nm
same,A556/A652 value,[2]; before desulfuration reaction,0.25
same,change of fluorescent spectrum,[2]; in the absence of light,no change
same,change of fluorescence intensity,"[2]; oxygen-free solution (nitrogen bubbled), 615 nm, within 20 mins irradiation",no significant change
same,increase of fluorescence intensity at 626 nm (activation ratio),[2]; upon irradiation with red light,280 fold

# Reference: patent US11913884B2, “Visible light-activated dyes and methods of use thereof” (William Marsh Rice University, priority 2019, dated 2024)
